# Measurements published in article PMC7377239, “Cardiovascular Effects of Polychlorinated Biphenyls and Their Major Metabolites” (Environmental Health Perspectives, 2020).
# Where a name gives a salt, the structure may show the parent alone. Read-outs that look alike come from different tables or passages of the source.
# Tested on: iCell cardiomyocytes (human iPSC-derived cardiomyocytes)
# Test: High-content imaging of cytotoxicity and mitochondrial integrity in iPSC-CMs
# Type: cell-based
# Settings: Homo sapiens; for viability at 0.01 µM / activity at 0.01 µM / viability at 0.1 µM / activity at 0.1 µM / viability at 1 µM / activity at 1 µM / viability at 10 µM / activity at 10 µM / viability at 100 µM / activity at 100 µM: Cardiomyocyte, 0.00 µM = 100.00; for viability at 0.1 µM / activity at 0.1 µM: 0.10 µM; for minimal effective concentration: iPSC-CM
# Outline: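 Cardiomyocytes grown on gelatinized 384-well plates received fresh medium on the experiment day and were then exposed to chemicals at 0.01–100μM. Nuclei and mitochondria were labeled with Hoechst 33342 and MitoTracker™ Orange, then fixed, and imaged on an ImageXpress® Micro Confocal system. Four-parameter logistic concentration–response fits in R, with a one-standard-deviation vehicle cutoff, gave point-of-departure values.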
compound,measurement,setting,value
O=S(=O)(O)Oc1ccc(-c2cccc(Cl)c2)cc1Cl [4-yl PCB 11 sulfate],viability at 0.01 µM,"1.5 h, read-out: cm.cam.90min",100%
same,activity at 0.01 µM,"1.5 h, read-out: cm.mii.90min",101%
same,activity at 0.01 µM,"1.5 h, read-out: cm.mito.90min",99.5%
same,viability at 0.01 µM,"1.5 h, read-out: cm.tc.90min",100%
same,viability at 0.1 µM,"1.5 h, read-out: cm.cam.90min",99.7%
same,activity at 0.1 µM,"1.5 h, read-out: cm.mii.90min",117%
same,activity at 0.1 µM,"1.5 h, read-out: cm.mito.90min",99.5%
same,viability at 0.1 µM,"1.5 h, read-out: cm.tc.90min",99.6%
same,viability at 1 µM,"1.5 h, read-out: cm.cam.90min",101%
same,activity at 1 µM,"1.5 h, read-out: cm.mii.90min",114%
same,activity at 1 µM,"1.5 h, read-out: cm.mito.90min",101%
same,viability at 1 µM,"1.5 h, read-out: cm.tc.90min",101%
same,viability at 10 µM,"1.5 h, read-out: cm.cam.90min",98.7%
same,activity at 10 µM,"1.5 h, read-out: cm.mii.90min",103%
same,activity at 10 µM,"1.5 h, read-out: cm.mito.90min",98.5%
same,viability at 10 µM,"1.5 h, read-out: cm.tc.90min",98.6%
same,viability at 100 µM,"1.5 h, read-out: cm.cam.90min",99.5%
same,activity at 100 µM,"1.5 h, read-out: cm.mii.90min",108%
same,activity at 100 µM,"1.5 h, read-out: cm.mito.90min",99.1%
same,viability at 100 µM,"1.5 h, read-out: cm.tc.90min",99.5%
same,viability at 0.01 µM,"24 h, read-out: cm.cam.24hrs",88.6%
same,activity at 0.01 µM,"24 h, read-out: cm.mii.24hrs",106%
same,activity at 0.01 µM,"24 h, read-out: cm.mito.24hrs",87.2%
same,viability at 0.01 µM,"24 h, read-out: cm.tc.24hrs",89.5%
same,viability at 0.1 µM,"24 h, read-out: cm.cam.24hrs",101%
same,activity at 0.1 µM,"24 h, read-out: cm.mii.24hrs",114%
same,activity at 0.1 µM,"24 h, read-out: cm.mito.24hrs",102%
same,viability at 0.1 µM,"24 h, read-out: cm.tc.24hrs",102%
same,viability at 1 µM,"24 h, read-out: cm.cam.24hrs",102%
same,activity at 1 µM,"24 h, read-out: cm.mii.24hrs",101%
same,activity at 1 µM,"24 h, read-out: cm.mito.24hrs",101%
same,viability at 1 µM,"24 h, read-out: cm.tc.24hrs",102%
same,viability at 10 µM,"24 h, read-out: cm.cam.24hrs",85.6%
same,activity at 10 µM,"24 h, read-out: cm.mii.24hrs",102%
same,activity at 10 µM,"24 h, read-out: cm.mito.24hrs",82.8%
same,viability at 10 µM,"24 h, read-out: cm.tc.24hrs",86.3%
same,viability at 100 µM,"24 h, read-out: cm.cam.24hrs",10.5%
same,activity at 100 µM,"24 h, read-out: cm.mii.24hrs",48.4%
same,activity at 100 µM,"24 h, read-out: cm.mito.24hrs",5.02%
same,viability at 100 µM,"24 h, read-out: cm.tc.24hrs",10.7%
same,minimal effective concentration,"1.5 h, read-out: cm.cam.90min POD",100 µM
same,minimal effective concentration,"1.5 h, read-out: cm.mii.90min POD",100 µM
same,minimal effective concentration,"1.5 h, read-out: cm.mito.90min POD",100 µM
same,minimal effective concentration,"1.5 h, read-out: cm.tc.90min POD",100 µM
same,minimal effective concentration,"24 h, read-out: cm.cam.24hrs POD",5.91 µM
same,minimal effective concentration,"24 h, read-out: cm.mii.24hrs POD",49.2 µM
same,minimal effective concentration,"24 h, read-out: cm.mito.24hrs POD",7.07 µM
same,minimal effective concentration,"24 h, read-out: cm.tc.24hrs POD",6.38 µM
